Reference: patent US12643912B2, “Macrocyclic compounds, a process for their preparation and pharmaceutical compositions containing them” (LES LABORATOIRES SERVIER, priority 2020, dated 2026)

system: Nrf2 (Keap1-NRF2 nuclear translocation); test: U2OS translocation assay (PathHunter U2OS Keap1-NRF2 Nuclear Translocation Cell Line); type: cell-based; settings: Homo sapiens, U2OS, 3 h, read-out: CELLULAR U2OS EC50 (nM), U2OS Keap1-NRF2 nuclear translocation cells, 3 h incubation, luminescence, normalized between 1% DMSO and 10 μM andrographolide
Protocol: EXAMPLE 84: U2OS—TRANSLOCATION ASSAY
U2OS cell have been stably transduced using MMLV-derived retroviral vector, to overexpress Nrf2-Enzyme Donor fusion protein, and Acceptor Enzyme in the nucleus (PathHunter® U2OS Keap1-NRF2 Nuclear Translocation Cell Line, Ref.93-0821C3, DiscoverX).
PathHunter U2OS cells were grown in Minimum Essential Medium (MEM) (Ref.30-2003, ATCC), 10% FBS (Ref.P30-193306, PanBiotech), 500 μg/ml Geneticine, 250 μg/ml hygromycine, 0.25 μg/ml puromycine (10131-027, 10687-010 and Ref.A1113802 respectively, Life Technologies).
The night before experiment, cells were harvested using Tryple Xpress (Ref.126905, Bibco) for 5 min at 37° C., resuspended in Opti-MEM™ (Ref.31985-047, Gibco), 1% FBS (Ref.P30-193306, PanBiotech) and then plated into 384 wells plates (Ref.6007680, Perkin Elmer) at the density of 7 500 cells/well in 20 μl. Cell are stored over night at 37° C., 5% CO2 until used. Compounds in 100% DMSO (0.315 μl/well) were resuspended in 20 μl MEM, 1% FBS, 3.4% DMSO. Compounds and andrographolide (10 μM final concentration; Ref.365645-500MG, Aldrich)) as positive control, were dispensed on cell, 5 μl /well, and then incubated for 3 h at 37° C. and 5% CO2. After incubation, Path hunter reagents were dispensed on cells (12 μl /well, Ref.93-0001, DiscoverX) and incubated for 60 min at room temperature in the dark.
Then, luminescence signal was measured using multimodal reader (Pherastar, BMG Labtech). Data were normalized between 1% DMSO (basal signal) and 10 μM andrographolide (positive signal) and analyzed using Activity Base software.

Compared with `COc1ccc2cc1CN1Cc3cc(ccc3OS1(=O)=O)OCCOCCn1nnc3c(C)c(ccc31)C2CC(=O)O` (stereo not drawn) [Example 59b, [4-Methoxy-32-methyl-28,28-dioxo-19,22,27-trioxa-28λ^6-thia-1,14,15,16-tetraazahexacyclo[21.5.3.1^3,70.1^9,130.0^12,160.0^26,30]tritriaconta-3(33),4,6,9(32),10,12,14,23,25,30-decaen-8-yl]acetic acid], `COc1ccc2cc1[C@@H](C)N1Cc3cc(ccc3OS1(=O)=O)OCCOCCn1nnc3c(C)c(ccc31)[C@@H]2CC(=O)O` [Example 41b] is higher in EC50: 1760 nM for the first, over 3160 nM for the second.

Compared with `Cc1ccc2cc1CN1Cc3cc(ccc3OS1(=O)=O)OCCCCn1nnc3c(C)c(ccc31)[C@H]2CC(=O)Nc1cncnc1` [Example 79b, 2-[(8S)-4,31-dimethyl-27,27-dioxo-21,26-dioxa-27λ^6-thia-1,14,15,16-tetraazahexacyclo[20.5.3.1^3,70.1^9,130.0^12,160.0^25,29]dotriaconta-3(32),4,6,9(31),10,12,14,22,24,29-decaen-8-yl]-N-(pyrimidin-5-yl)acetamide], `Cc1ccc2cc1CN1Cc3cc(ccc3OS1(=O)=O)OCCCCn1nnc3c(C)c(ccc31)[C@H]2CC(=O)Nc1cccnc1` [Example 80a, 2-[(8S)-4,31-Dimethyl-27,27-dioxo-21,26-dioxa-27λ^6-thia-1,14,15,16-tetraazahexacyclo[20.5.3.1^3,70.1^9,130.0^12,160.0^25,29]dotriaconta-3(32),4,6,9(31),10,12,14,22,24,29-decaen-8-yl]-N-(pyridin-3-yl)acetamide] is 2-fold higher in EC50: 296 nM for the first, 596 nM for the second.

First: COc1ccc2cc1[C@H](C)N1Cc3cc(ccc3OS1(=O)=O)OCCCCCn1nnc3c(C)c(ccc31)[C@H]2CC(=O)O [Example 31a, [(2S,8S)-4-methoxy-2,32-dimethyl-28,28-dioxo-22,27-dioxa-28λ^6-thia-1,14,15,16-tetraazahexacyclo[21.5.3.1^3,70.1^9,130.0^12,160.0^26,30]tritriaconta-3(33),4,6,9(32),10,12,14,23,25,30-decaen-8-yl]acetic acid]
Second: COc1ccc2cc1[C@@H](C)N1Cc3cc(ccc3OS1(=O)=O)OCCCCCn1nnc3c(C)c(ccc31)[C@H]2CC(=O)O [Example 31b, [(2R,8S)-4-methoxy-2,32-dimethyl-28,28-dioxo-22,27-dioxa-28λ^6-thia-1,14,15,16-tetraazahexacyclo[21.5.3.1^3,70.1^9,130.0^12,160.0^26,30]tritriaconta-3(33),4,6,9(32),10,12,14,23,25,30-decaen-8-yl]acetic acid]
The EC50 of the first is 52-fold higher: 1430 nM for the first, 27.4 nM for the second. The second is the more potent here.

Compared with `Cc1ccc2cc1CN1Cc3cc(c(Cl)cc3OS1(=O)=O)OCCOCCn1nnc3c(C)c(ccc31)C2CC(=O)O` (stereo not drawn) [Example 75, [24-Chloro-4,32-dimethyl-28,28-dioxo-19,22,27-trioxa-28λ^6-thia-1,14,15,16-tetraazahexacyclo[21.5.3.1^3,70.1^9,130.0^12,160.0^26,30]tritriaconta-3(33),4,6,9(32),10,12,14,23,25,30-decaen-8-yl]acetic acid], `Cc1ccc2cc1CN1Cc3cc(ccc3OS1(=O)=O)OCCSCCn1nnc3c(C)c(ccc31)C2CC(=O)O` (stereo not drawn) [Example 63b, [4,32-Dimethyl-28,28-dioxo-22,27-dioxa-19,28λ^6-dithia-1,14,15,16-tetraazahexacyclo[21.5.3.1^3,70.1^9,130.0^12,160.0^26,30]tritriaconta-3(33),4,6,9(32),10,12,14,23,25,30-decaen-8-yl]acetic acid] is 20-fold higher in EC50: 59.6 nM for the first, 1220 nM for the second. The first is the more potent here.

First: COc1ccc2cc1[C@H](C)N1Cc3cc(ccc3OS1(=O)=O)OCCCCn1nnc3c(C)c(ccc31)[C@H]2CC(=O)O [Example 28d, [(2S,8S)-4-methoxy-2,31-dimethyl-27,27-dioxo-21,26-dioxa-27λ^6-thia-1,14,15,16-tetraazahexacyclo[20.5.3.1^3,70.1^9,130.0^12,160.0^25,29]dotriaconta-3(32),4,6,9(31),10,12,14,22,24,29-decaen-8-yl]acetic acid]
Second: Cc1ccc2cc1CN1Cc3cc(ccc3OS1(=O)=O)CNC(=O)CCn1nnc3c(C)c(ccc31)C2CC(=O)O (racemic) [Example 69, [4,31-Dimethyl-19,27,27-trioxo-26-oxa-27λ^6-thia-1,14,15,16,20-pentaazahexacyclo[20.5.3.1^3,70.1^9,130.0^12,160.0^25,29]dotriaconta-3(32),4,6,9(31),10,12,14,22,24,29-decaen-8-yl]acetic acid]
The EC50 of the first is lower: 879 nM for the first, over 3160 nM for the second. The first is the more potent here.

`Cc1ccc2cc1CN1Cc3cc(ccc3OS1(=O)=O)OCCC(c1ccc(C(F)(F)F)cc1)Cn1nnc3c(C)c(ccc31)C2CC(=O)O` (stereo not drawn) [Example 65, {4,31-Dimethyl-27,27-dioxo-18-[4-(trifluoromethyl)phenyl]-21,26-dioxa-27λ^6-thia-1,14,15,16-tetraazahexacyclo[20.5.3.1^3,70.1^9,130.0^12,160.0^25,29]dotriaconta-3(32),4,6,9(31),10,12,14,22,24,29-decaen-8-yl}acetic acid] was tested, and the EC50 was 699 nM.

same assay, conditions: read-out: CELLULAR U2OS EC50; U2OS Keap1-NRF2 nuclear translocation cells, 3 h incubation, luminescence, normalized between 1% DMSO and 10 μM andrographolide

Compared with `Cc1ccc2cc1CN1Cc3cc(ccc3OS1(=O)=O)OCC1CCN(CC1)CCn1nnc3c(C)c(ccc31)C2CC(=O)O` (single isomer, unassigned) [Example 60a, [4,36-Dimethyl-30,30-dioxo-24,29-dioxa-30λ^6-thia-1,14,15,16,19-pentaazaheptacyclo[23.5.3.2^19,220.1^3,70.1^9,130.0^12,160.0^28,32]heptatriaconta-3(37),4,6,9(36),10,12,14,25,27,32-decaen-8-yl]acetic acid], `Cc1ccc2cc1CN1Cc3cc(ccc3OS1(=O)=O)OCCn1nnc3c(C)c(ccc31)C2CC(=O)O` (stereo not drawn) [Example 77b, [4,29-Dimethyl-25,25-dioxo-19,24-dioxa-25λ^6-thia-1,14,15,16-tetraazahexacyclo[18.5.3.1^3,70.1^9,130.0^12,160.0^23,27]triaconta-3(30),4,6,9(29),10,12,14,20,22,27-decaen-8-yl]acetic acid] is higher in EC50: 265 nM for the first, over 3160 nM for the second. The first is the more potent here.

`Cc1ccc2cc1CN1Cc3cc(ccc3OS1(=O)=O)OCc1ccccc1SCCCn1nnc3c(C)c(ccc31)C2CC(=O)O` (single isomer, unassigned) [Example 67b, [4,38-Dimethyl-34,34-dioxo-28,33-dioxa-20,34λ^6-dithia-1,14,15,16-tetraazaheptacyclo[27.5.3.1^3,70.1^9,130.0^12,160.0^21,260.0^32,36]nonatriaconta-3(39),4,6,9(38),10,12,14,21,23,25,29,31,36-tridecaen-8-yl]acetic acid] and `Cc1ccc2cc1CN1Cc3cc(ccc3OS1(=O)=O)Oc1ccccc1NCCn1nnc3c(C)c(ccc31)C2CC(=O)O` (single isomer, unassigned) [Example 70b, [4,36-Dimethyl-32,32-dioxo-26,31-dioxa-32λ^6-thia-1,14,15,16,19-pentaazaheptacyclo[25.5.3.1^3,70.1^9,130.0^12,160.0^20,250.0^30,34]heptatriaconta-3(37),4,6,9(36),10,12,14,20,22,24,27,29,34-tridecaen-8-yl]acetic acid] cannot be ordered by EC50: over 3160 nM for the first, over 3160 nM for the second.

First: Cc1ccc2cc1CN1Cc3cc(ccc3OS1(=O)=O)OCCCCn1nnc3c(C)c(ccc31)C2C(C)(C)C(=O)Nc1cccnc1 (single isomer, unassigned) [Example 82a, 2-[4,31-Dimethyl-27,27-dioxo-21,26-dioxa-27λ^6-thia-1,14,15,16-tetraazahexacyclo[20.5.3.1^3,70.1^9,130.0^12,160.0^25,29]dotriaconta-3(32),4,6,9(31),10,12,14,22,24,29-decaen-8-yl]-2-methyl-N-(pyridin-3-yl)propanamide]
Second: Cc1ccc2cc1CN1Cc3cc(ccc3OS1(=O)=O)OCCCCn1nnc3c(C)c(ccc31)C2C(C)(C)C(=O)O (single isomer, unassigned) [Example 74a, 2-[4,31-Dimethyl-27,27-dioxo-21,26-dioxa-27λ^6-thia-1,14,15,16-tetraazahexacyclo[20.5.3.1^3,70.1^9,130.0^12,160.0^25,29]dotriaconta-3(32),4,6,9(31),10,12,14,22,24,29-decaen-8-yl]-2-methylpropanoic acid]
The EC50 of the first is 100-fold higher: 635 nM for the first, 6.11 nM for the second.

For `Cc1ccc2cc1CN1Cc3cc(ccc3OS1(=O)=O)OCCCCn1nnc3c(C)c(ccc31)C2C(C)(C)C(=O)O` (single isomer, unassigned) [Example 74b, 2-[4,31-Dimethyl-27,27-dioxo-21,26-dioxa-27λ^6-thia-1,14,15,16-tetraazahexacyclo[20.5.3.1^3,70.1^9,130.0^12,160.0^25,29]dotriaconta-3(32),4,6,9(31),10,12,14,22,24,29-decaen-8-yl]-2-methylpropanoic acid], the EC50 was 756 nM.
